Target: recombinant human AMPK complex 1 (containing α1β1γ1) (Homo sapiens, UniProt Q13131+Q9Y478)
Experiment: In vitro AMPK activation assay ([…])
Assay type: biochemical
Conditions: recombinant human AMPK complex 1 (α1β1γ1); for EC50: read-out: EC50; for Emax: basal activity subtracted, expressed as % maximum AMP activation
Procedure: The recombinant human AMPK complex 1 (containing α1β1γ1) was obtained from baculovirus expression system. Recombinant viruses were generated by cotransfection of AMPK/pBacPak9 clones with Baculogold baculovirus DNA (Pharmingen) in spodoptera frugiperda 21 cells according to the manufacturer's instructions. Each round of virus amplification was performed for 5 days in Grace's medium containing 10% serum. Virus that had been subjected to three rounds of amplification was used for all protein production procedures. To express the AMPK complex, sf21 cells were adapted to serum free medium (SF900 II, Invitrogen) by sequential dilution from serum containing stocks into SF900II medium and maintained in shaker flasks at 90 rpm at 27° C. The recombinant AMPK enzyme complex was produced by triple infection, one recombinant virus for each of the subunits, in sf21 cells under serum free conditions. Cells were infected in log phase, 1×10^6 cells/ml, at a multiplicity of infection of ˜5. Cells were harvested by centrifugation at 10,000×g for 15 minutes after 72 hours of infection with viruses. The insect cell pellet from 2 liters of culture was resuspended in 50 ml lysis buffer (20 mM Tris-HCl, 50 mM NaCl, 50 mM NaF, 30 mM Na PPi, 0.25 M sucrose, 10 mM ZnCl2, 2 mM DTT, 0.4 mg/ml digitonin) and subjected to two cycles of freeze-thaw lysis in a dry-ice ethanol bath. Insoluble material was removed by centrifugation at 10,000×g and the supernatant was fractionated with use of polyethylene glycol (PEG). The protein fraction precipitating between 2.5 and 6% PEG was used for further purification using a Blue-Sepharose step (Zhou et al, J. Clin. Invest. 108, 1167-1174, 2001).
The total in vitro AMPK activation assay volume is 50 μl in a 96-well plate. The reaction mixture contained 100 μM ATP (0.5 μCi ^33P-ATP per reaction), and 50 μM SAMS ([…]) in a buffer (20 mM HEPES, pH 7.0, 5 mM MgCl2, 0.01% Brij35). The reaction was initiated with addition of the enzyme. After 30-minute incubation at 30° C., the reaction was stopped by addition of 80 μl 1% H3PO4. Aliquots (100 μl) were transferred to 96-well MultiScreen plates (MAPHNOB50; Millipore Corp., Bedford, Mass., USA). The plate was washed three times with 1% H3PO4 followed by detection in a Top-count. The counts per minute from the basal activity (the reaction without activator) was subtracted from each well and the data were expressed as % maximum AMP activation followed by EC50 calculation.

Chain of recombinant human AMPK complex 1 (containing α1β1γ1) (Q13131 whole entry): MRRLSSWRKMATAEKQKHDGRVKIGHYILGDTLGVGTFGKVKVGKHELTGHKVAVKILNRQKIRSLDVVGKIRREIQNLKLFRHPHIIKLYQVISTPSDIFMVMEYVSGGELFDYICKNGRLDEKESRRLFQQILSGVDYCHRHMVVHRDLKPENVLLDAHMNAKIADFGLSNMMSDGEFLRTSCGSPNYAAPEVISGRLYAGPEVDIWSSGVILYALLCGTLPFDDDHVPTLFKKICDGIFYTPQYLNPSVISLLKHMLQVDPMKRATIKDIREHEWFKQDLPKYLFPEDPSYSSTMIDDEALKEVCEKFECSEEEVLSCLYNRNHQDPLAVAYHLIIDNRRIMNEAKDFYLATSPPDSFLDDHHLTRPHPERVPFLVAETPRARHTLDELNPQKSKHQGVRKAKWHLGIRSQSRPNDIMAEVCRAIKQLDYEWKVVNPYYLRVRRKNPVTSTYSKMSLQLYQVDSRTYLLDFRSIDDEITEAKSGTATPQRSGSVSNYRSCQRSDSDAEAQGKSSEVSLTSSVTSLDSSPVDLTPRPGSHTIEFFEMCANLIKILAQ
Chain of recombinant human AMPK complex 1 (containing α1β1γ1) (Q9Y478 whole entry): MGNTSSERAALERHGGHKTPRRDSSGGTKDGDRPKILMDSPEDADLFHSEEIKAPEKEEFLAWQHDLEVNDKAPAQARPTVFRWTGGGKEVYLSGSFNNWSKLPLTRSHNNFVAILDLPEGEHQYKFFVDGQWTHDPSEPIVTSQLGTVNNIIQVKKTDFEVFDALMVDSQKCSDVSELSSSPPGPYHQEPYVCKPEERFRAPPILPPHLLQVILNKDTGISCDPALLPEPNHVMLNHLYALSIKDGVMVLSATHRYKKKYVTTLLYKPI
Chain of recombinant human AMPK complex 1 (containing α1β1γ1) (P54619 whole entry partner): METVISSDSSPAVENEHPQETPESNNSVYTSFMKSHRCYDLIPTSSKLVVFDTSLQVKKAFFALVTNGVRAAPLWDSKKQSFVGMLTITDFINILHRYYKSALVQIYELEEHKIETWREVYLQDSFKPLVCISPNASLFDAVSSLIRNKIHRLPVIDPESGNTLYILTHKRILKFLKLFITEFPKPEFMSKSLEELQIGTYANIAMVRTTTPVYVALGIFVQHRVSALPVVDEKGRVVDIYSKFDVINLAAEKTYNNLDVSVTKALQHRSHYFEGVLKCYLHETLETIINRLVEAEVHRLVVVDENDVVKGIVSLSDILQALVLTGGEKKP

Compound	EC50 [nM]	Emax [%]
O=C(O)CSc1nc2cc(C#Cc3ccc(CO)cc3)c(Cl)cc2[nH]1 [Example 18, [6-Chloro-5-(4-hydroxymethyl-phenylethynyl)-1H-benzoimidazol-2-ylsulfanyl]-acetic acid]	248	
CS(=O)(=O)c1ccc(C#Cc2cc3nc(SCC(=O)O)[nH]c3cc2Cl)cc1 [Example 19, [6-chloro-5-(4-methanesulfonyl-phenyl-ethynyl)-1H-benzo-imidazol-2-yl-sulfanyl]-acetic acid]		> 40
N#Cc1ccccc1C#Cc1cc2nc(SCC(=O)O)[nH]c2cc1Cl [Example 20, [6-chloro-5-(2-cyano-phenyl-ethynyl)-1H-benzo-imidazol-2-ylsulfanyl]-acetic acid]		> 40
O=C(O)CSc1nc2cc(C#CC3CCNCC3)c(Cl)cc2[nH]1 [Example 21, (6-chloro-5-piperidin-4-ylethynyl-1H-benzoimidazol-2-ylsulfanyl)-acetic acid]		> 40
O=C(O)CSc1nc2cc(C#Cc3ccc(F)cc3)c(Cl)cc2[nH]1 [Example 22]		> 40
O=C(O)CSc1nc2cc(C#Cc3cccc(F)c3)c(Cl)cc2[nH]1 [Example 23]		> 40
O=C(O)CSc1nc2cc(C#Cc3ccc(F)cc3F)c(Cl)cc2[nH]1 [Example 24, [6-chloro-5-(2,4-difluoro-phenyl-ethynyl)-1H-benzoimidazol-2-ylsulfanyl]-acetic acid]		> 40
O=C(O)CSc1nc2cc(C#Cc3ccncc3)c(Cl)cc2[nH]1 [Example 25, (6-chloro-5-pyridin-4-yl-ethynyl-1H-benzoimidazol-2-ylsulfanyl)-acetic acid]		> 40
O=C(O)CSc1nc2cc(C#CCOc3ccccc3)c(Cl)cc2[nH]1 [Example 26, [6-chloro-5-(3-phenoxy-prop-1-ynyl)-1H-benzo-imidazol-2-yl-sulfanyl]-acetic acid]		> 40
O=C(O)CSc1nc2cc(C#Cc3ccccc3F)c(Cl)cc2[nH]1 [Example 27]		> 40
N#Cc1ccc(C#Cc2cc3nc(SCC(=O)O)[nH]c3cc2Cl)cc1 [Example 28, [6-chloro-5-(4-cyano-phenyl-elhynyl)-1H-benzoimidazol-2-ylsulfanyl]-acetic acid]		> 40
O=C(O)CSc1nc2cc(C#Cc3cccc(O)c3)c(Cl)cc2[nH]1 [Example 29, [6-chloro-5-(3-hydroxyphenyl-ethynyl)-1H-benzoimidazol-2-ylsulfanyl]-acetic acid]		> 40
Cc1ccccc1C#Cc1cc2nc(SCC(=O)O)[nH]c2cc1Cl [Example 30, (6-chloro-5-o-tolylethynyl-1H-benzo-imidazol-2-ylsulfanyl)-acetic acid]		> 40
Cc1cccc(C#Cc2cc3nc(SCC(=O)O)[nH]c3cc2Cl)c1 [Example 31, (6-chloro-5-m-tolylethynyl-1H-benzoimidazol-2-ylsulfanyl)-acetic acid]		> 40
COc1cccc(C#Cc2cc3nc(SCC(=O)O)[nH]c3cc2Cl)c1 [Example 32, [6-chloro-5-(3-methoxy-phenyl-ethynyl)-1H-benzoimidazol-2-ylsulfanyl]-acetic acid]		> 40
O=C(O)CSc1nc2cc(C#Cc3ccc(Oc4ccccc4)cc3)c(Cl)cc2[nH]1 [Example 33, [6-Chloro-5-(4-phenoxy-phenylethynyl)-1H-benzoimidazol-2-ylsulfanyl]-acetic acid]		> 40
O=C(O)CSc1nc2cc(C#Cc3ccc(-c4ccccc4)cc3)c(Cl)cc2[nH]1 [Example 34, (5-biphenyl-4-ylethynyl-6-chloro-1H-benzoimidazol-2-ylsulfanyl)-acetic acid]		> 40
O=C(O)CSc1nc2cc(C#CC3CCCC3)c(Cl)cc2[nH]1 [Example 35, (6-chloro-5-cyclo-pentylethynyl-1H-benzo-imidazol-2-yl-sulfanyl)-acetic acid]		> 40
CCc1ccc(C#Cc2cc3nc(SCC(=O)O)[nH]c3cc2Cl)cc1 [Example 36, [6-chloro-5-(4-ethyl-phenyl-ethynyl)-1H-benzo-imidazol-2-yl-sulfanyl]-acetic acid]		> 40
COc1ccc2cc(C#Cc3cc4nc(SCC(=O)O)[nH]c4cc3Cl)ccc2c1 [Example 37, [6-chloro-5-(6-methoxy-naphthalen-2-yl-ethynyl)-1H-benzo-imidazol-2-yl-sulfanyl]-acetic acid]		> 40
O=C(O)CSc1nc2cc(C#Cc3cccs3)c(Cl)cc2[nH]1 [Example 38, (6-chloro-5-thiophen-2-yl-ethynyl-1H-benzo-imidazol-2-yl-sulfanyl)-acetic acid]		> 40
COc1ccc(C#Cc2cc3nc(SCC(=O)O)[nH]c3cc2Cl)cc1 [Example 39, [6-chloro-5-(4-methoxy-phenyl-ethynyl)-1H-benzimidazol-2-ylsulfanyl]-acetic acid]		> 40

Compound	EC50 [nM]	Emax [%]
O=C(O)CSc1nc2cc(-c3ccc(OCc4ccccc4)c(F)c3)c(Cl)cc2[nH]1 [Example 40, [5-(4-Benzyloxy-3-fluoro-phenyl)-6-chloro-1H-benzimidazol-2-ylsulfanyl]-acetic acid]		> 40
O=C(O)CSc1nc2cc(-c3ccc(Cl)cc3)c(Cl)cc2[nH]1 [Example 41, [6-chloro-5-(4-chloro-phenyl)-1H-benzimidazol-2-ylsulfanyl]-acetic acid]		> 40
COc1ccc(-c2cc3nc(SCC(=O)O)[nH]c3cc2Cl)cc1 [Example 42, [6-chloro-5-(4-methoxy-phenyl)-1H-benzimidazol-2-ylsulfanyl]-acetic acid]		> 40
CC(C)Cc1ccc(-c2cc3nc(SCC(=O)O)[nH]c3cc2Cl)cc1 [Example 43, [6-chloro-5-(4-isobutyl-phenyl)-1H-benzimidazol-2-ylsulfanyl]-acetic acid]		> 40
O=C(O)CSc1nc2cc(-c3ccc(OCc4ccccc4)cc3)c(Cl)cc2[nH]1 [Example 44, [5-(4-benzyl-oxy-phenyl)-6-chloro-1H-benzimidazol-2-ylsulfanyl]-acetic acid]		> 40
O=C(O)COc1nc2cc(-c3ccc(-c4ccn[nH]4)cc3)c(Cl)cc2[nH]1 [Example 45, {6-Chloro-5-[4-(2H-pyrazol-3-yl)-phenyl]-1H-benzoimidazol-2-yloxy}-acetic acid]	160	
O=C(O)COc1nc2cc(-c3ccc(-c4ccccc4)cc3)c(Cl)cc2[nH]1 [Example 46, [(5-biphenyl-4-yl-6-chloro-1H-benzimidazol-2-yl)oxy]ylacetic acid]	128	
O=C(O)COc1nc2cc(C#Cc3ccc(CO)cc3)c(Cl)cc2[nH]1 [Example 47]	97	
O=C(O)COc1nc2cc(C#Cc3ccccc3)c(Cl)cc2[nH]1 [Example 48, (6-Chloro-5-phenylethynyl-1H-benzoimidazol-2-yloxy)-acetic acid]	130	
CC(C)(COc1nc2cc(C#Cc3ccccc3)c(Cl)cc2[nH]1)C(=O)O [Example 49, 3-(6-Chloro-5-phenylethynyl-1H-benzoimidazol-2-yloxy)-2,2-dimethyl-propionic acid]		> 40
O=C(O)CCc1nc2cc(-c3ccccc3)c(Cl)cc2[nH]1 [Example 50, 3-(6-Chloro-5-phenyl-1H-benzimidazol-2-yl)-propionic acid]		> 40
O=C(O)CCc1nc2cc(-c3ccc(-c4ccccc4)cc3)c(Cl)cc2[nH]1 [Example 51, 3-(5-Biphenyl-4-yl-6-chloro-1H-benzimidazol-2-yl)-propionic acid]		> 40
O=C(O)CSc1nc2cc(C#Cc3cccnc3)c(Cl)cc2[nH]1 [Example 56]		> 40
O=C(O)CSc1nc2cc(C#Cc3ccccn3)c(Cl)cc2[nH]1 [Example 57]		> 40
O=C(O)CSc1nc2cc(-c3ccc(-c4ccccc4)s3)c(Cl)cc2[nH]1 [Example 58]		> 40
Cn1ccc2cc(-c3cc4nc(SCC(=O)O)[nH]c4cc3Cl)ccc21 [Example 59]	100	
O=C(O)CSc1nc2cc(-c3ccc(N4CCCCC4)cc3)c(Cl)cc2[nH]1 [Example 60]		> 40
O=C(O)CSc1nc2cc(-c3ccc(N4CCOCC4)cc3)c(Cl)cc2[nH]1 [Example 61]		> 40
O=C(O)CSc1nc2cc(-c3ccc(N4CCOCC4)nc3)c(Cl)cc2[nH]1 [Example 62]		> 40
O=C(O)CSc1nc2cc(-c3cc4ccccc4s3)c(Cl)cc2[nH]1 [Example 63]		> 40
O=C(O)CSc1nc2cc(C#Cc3ccc(C(F)(F)F)cc3)c(Cl)cc2[nH]1 [Example 65]		> 40

Reference: US8563746B2, “Cyclic benzimidazole derivatives useful as anti-diabetic agents” (Merck Sharp & Dohme Corp, priority 2008, dated 2013)
